# What was measured:
# Format in all cases: cell-based
# [1] = tested on: in vitro oral plaque biofilms; assay: Microbial composition of biofilms by 16S rDNA sequencing; settings: for Actinobacillus, share of biofilm composition / Actinomyces, share of biofilm composition / Campylobacter, share of biofilm composition / Fusobacterium, share of biofilm composition / Granulicatella, share of biofilm composition / Haemophilus, share of biofilm composition / Megasphaera, share of biofilm composition / Neisseria, share of biofilm composition / Other taxa, share of biofilm composition / Porphyromonas, share of biofilm composition / Prevotella, share of biofilm composition / Rothia, share of biofilm composition / Solobacterium, share of biofilm composition / Streptococcus, share of biofilm composition / Unclass. Pasteurellaceae, share of biofilm composition / Veillonella, share of biofilm composition: 3-Oxo-N 100 μM, furanones 10 μM
# Protocol: DNA was isolated using phenol bead-beating followed by Agowa isolation, following the manufacturers instructions (LGC Genomics, Mag mini kit). Briefly, cells were mechanically disrupted four times at 1200 rpm for two minutes in addition of Tris-saturated Phenol, pH8, 0.1 mm zirconium beads and Mag lysis buffer. The DNA-containing phase was mixed with binding buffer and magnetic beads. DNA concentration was estimated by determining the absorbance at 260 nm using the nanodrop (Isogen, ND-1000).
# PCR was performed in a final volume of 25 μl containing 1 μl of each primer ([…]), 1 μl dNTP (10 mM), 2.5 μl 10× DreamTaq Buffer including MgCl2 (Thermo Scientific), 0.2 μl DreamTaq DNA Polymerase (5 u/μ1, Thermo Scientific) and 50 ng of DNA. Initial denaturation was performed at 94° C. for 4 min, followed by 35 cycles of denaturation at 94° C. for 30 s, 54° C. annealing for 1 min, 72° C. for 1 min primer extension and a final extension at 72° C. for 5 min. Product formation was confirmed by electrophoresis of 5 μl on a 1% (w/v) agarose gel (Sphearo Q, Leiden, The Netherlands) stained with ethidium bromide.
# These samples were analyzed by 16S rDNA Illumina sequencing at TNO Zeist (Netherlands).
# Table 3. Microbial composition of biofilms grown for 48 (Table 3A) or 96 h (Table 3B) in the presence of different QS inhibitors. Composition was determined by 16S rDNA sequencing. The composition of the original inoculum used for all biofilms was also determined. “Unclass.” means: unclassified.
# [2] = tested on: in vitro oral plaque biofilms; assay: Lactic acid production assay of in vitro oral plaque biofilms
# Protocol: All compounds tested of Table 1 were obtained from Sigma Aldrich. All compounds of Table 2, except 3-oxo-N(2oxocyclohexyl)dodecanamide, were kindly provided by M. Meijler, University of the Negev, Israel. The compounds were dissolved in DMSO and stored at −20 C. The compounds were continuously present at the indicated concentrations during biofilm growth, but not during further phenotypic analysis, i.e. lactate production.
# (§1) To estimate the cariogenic phenotype, lactic acid production of the in vitro oral plaque biofilms was determined prior to harvesting (Exerkate et al 2010). In short, the biofilms on coverslips were placed in a 24-well plate containing 1.5 ml of BPW with 0.2% sucrose. Lactic acid formation was allowed for 3 hr at 37° C. under anaerobic conditions. The total amount of lactic acid produced in this period was analyzed using a colorimetric assay described previously (van Loveren et al. (2000)) and expressed as mM lactic acid, and as μM lactic acid per 1×10^6 CFU.
# Biofilms were grown for 48 h in buffered McBain medium supplemented with 0.2% sucrose in the presence of 100 μM of one of the compounds. Medium was refreshed twice every day. […]
# [3] = tested on: in vitro oral plaque biofilms; assay: In vitro oral plaque biofilm formation in the Amsterdam Active Attachment Model, CFU determination; settings: for in vitro oral plaque biofilm formation, Colony Forming Units: FIG. 1
# Protocol: Stimulated saliva, used as inoculum, was collected on ice from ten donors. Saliva was donated 24 h after last brushing. The saliva was diluted 2-fold with 60% sterile glycerol, aliquoted and stored at −80° C. Before use, a pooled sample was prepared by mixing 200 μl of thawed saliva of each donor and vortexing for 30 seconds. In vitro oral plaque biofilms were inoculated 1:50 with pooled saliva.
# In vitro oral plaque biofilms were grown in the Amsterdam Active Attachment Model (AAA-model, Exterkate et al. (2010)), assembled with glass coverslips (diameter 12 mm; Menzel, Braunschweig, Germany). The model was inoculated for 8 h with pooled saliva in buffered semi-defined McBain medium (2.5 g/l mucin (Sigma, St Louis, Mo.), 2.0 g/l Bacto peptone (Difco, Detroit, Mich.), 2.0 g/l Trypticase peptone (BBL, Cockeysville, Md.), 1.0 g/l yeast extract (BD Diagnostic Systems, Sparks, Md.), 0.35 g/l NaCl, 0.2 g/l KCl, 0.2 g/l CaCl2, 1 mg/l hemin (Sigma, St. Louis, Mo., USA), and 2 mg/l vitamin K1 (McBain et al. (2005)), with 50 mmol/1 PIPES at pH 7.0), with 0.2% sucrose.
# In vitro oral plaque biofilms were grown in the AAA-model for 48-96 h in the presence of the compounds tested. The model was inoculated with saliva and incubated anaerobically at 37° C. for 8 hours to allow microbes to attach to the glass coverslips. After 8 hours of attachment, the inoculation medium was refreshed and in vitro oral plaque biofilms were grown for 16 hours. This refreshment routine was repeated daily until the day of harvesting.
# In vitro oral plaque biofilms were harvested by transferring the glass coverslips into 2 ml phosphate buffered saline (PBS). The biofilms were dispersed using a Vibracell VCX130 sonicator with a maximum of 130 Watts and 20 kHz (Sonics & Materials, Newtown, USA). Bio films were sonicated on ice for 1 minute with a pulse rate of 50% and pulses of 1 second. Vibration amplitude was set to 40%.
# To estimate the amount of in vitro oral plaque biofilm formation, total anaerobic colony forming units were determined. Briefly, serial dilutions of the dispersed bio films were made and plated on tryptic soy agar blood plates. Plates were subsequently incubated anaerobically for 96 h at 37° C. and colony forming units were determined by counting the number of colonies for each dilution.
# [4] = tested on: in vitro oral plaque biofilms; assay: Lactic acid production of biofilms grown with 3-oxo-N(2-oxocyclohexyl)dodecanamide and C12-HSL (interference test); settings: all concentrations (25 or 100 μM), with 0, 25 or 100 μM C12-HSL; 48 h growth
# Protocol: as §1
# In this experiment the effect of the quorum sensing molecule C12-HSL on the lactate reducing activity of 3-Oxo-N-(2-oxocyclohexyl)dodecanamide was tested. Biofilms were grown for 48 h in buffered McBain medium supplemented with 0.2% sucrose, in the presence of 0, or 25 or 100 μM 3-oxo-N(2-oxocyclohexyl)dodecanamide and 0, or 25 or 100 μM of C12-HSL. Medium was refreshed twice every day. After 48 h of growth, biofilms were transferred to BPW with 0.2% sucrose, and biofilms were allowed to produce lactate for 3 h.
compound,measurement,setting,value
"CCCCCCCCCC(=O)CC(=O)NC1CCCCC1=O (stereo not shown) [3-Oxo-N, 3-oxo-N-(2-oxocyclohexyl)dodecanamide]",Streptococcus reduced versus control,"[1]; 100 μM, 48 h",more than 30%
same,Veillonella more abundant than in control,"[1]; 100 μM, 48 h",10%
same,change in Actinobacillus species versus control,"[1]; 100 μM, 48 h",increase
same,"Actinobacillus, share of biofilm composition",[1]; 48 h,27.6%
same,"Actinomyces, share of biofilm composition",[1]; 48 h,0.0%
same,"Campylobacter, share of biofilm composition",[1]; 48 h,1.1%
same,"Fusobacterium, share of biofilm composition",[1]; 48 h,0.0%
same,"Granulicatella, share of biofilm composition",[1]; 48 h,0.0%
same,"Haemophilus, share of biofilm composition",[1]; 48 h,0.2%
same,"Megasphaera, share of biofilm composition",[1]; 48 h,0.0%
same,"Neisseria, share of biofilm composition",[1]; 48 h,0.0%
same,"Other taxa, share of biofilm composition",[1]; 48 h,0.1%
same,"Porphyromonas, share of biofilm composition",[1]; 48 h,0.0%
same,"Prevotella, share of biofilm composition",[1]; 48 h,0.0%
same,"Rothia, share of biofilm composition",[1]; 48 h,0.0%
same,"Solobacterium, share of biofilm composition",[1]; 48 h,0.0%
same,"Streptococcus, share of biofilm composition",[1]; 48 h,34.3%
same,"Unclass. Pasteurellaceae, share of biofilm composition",[1]; 48 h,0.6%
same,"Veillonella, share of biofilm composition",[1]; 48 h,36.0%
same,"Actinobacillus, share of biofilm composition",[1]; 96 h,12.0%
same,"Actinomyces, share of biofilm composition",[1]; 96 h,0.0%
same,"Campylobacter, share of biofilm composition",[1]; 96 h,7.2%
same,"Fusobacterium, share of biofilm composition",[1]; 96 h,0.0%
same,"Granulicatella, share of biofilm composition",[1]; 96 h,0.0%
same,"Haemophilus, share of biofilm composition",[1]; 96 h,0.1%
same,"Megasphaera, share of biofilm composition",[1]; 96 h,0.0%
same,"Neisseria, share of biofilm composition",[1]; 96 h,0.0%
same,"Other taxa, share of biofilm composition",[1]; 96 h,0.3%
same,"Porphyromonas, share of biofilm composition",[1]; 96 h,0.0%
same,"Prevotella, share of biofilm composition",[1]; 96 h,0.0%
same,"Rothia, share of biofilm composition",[1]; 96 h,0.0%
same,"Solobacterium, share of biofilm composition",[1]; 96 h,0.0%
same,"Streptococcus, share of biofilm composition",[1]; 96 h,28.7%
same,"Unclass. Pasteurellaceae, share of biofilm composition",[1]; 96 h,0.0%
same,"Veillonella, share of biofilm composition",[1]; 96 h,51.7%
same,lactate production (FIG. 4A),[2]; 10 μM,significantly reduces
same,lactate production (FIG. 4A),[2]; 100 μM,almost completely blocked
same,lactate production corrected for CFU (FIG. 4B),[2]; 100 μM or 10 μM,still lower
same,total lactic acid production per biofilm (FIG. 2),"[2]; 100 μM, biofilms grown 48 h, 3 h in BPW with 0.2% sucrose",reduced lactic acid production
same,lactate production after 96 hours of growth,[2]; 96 hours of growth,the reducing effect was still present
same,inhibitory concentration (concentration that completely inhibits oral plaque biofilm growth),[3],above 800 μM
same,"in vitro oral plaque biofilm formation, Colony Forming Units","[3]; 100 μM, control 1.5×10^9 CFU",up to 6.6×10^8 CFU
same,biofilm production (visible amount of biofilm),"[3]; Example 2, 100 μM, 48 h",normal amounts of biofilm
same,"in vitro oral plaque biofilm formation, Colony Forming Units","[3]; all the other concentrations (below 100 μM), same as control",1.5×10^9 CFU
same,effect on in vitro oral plaque biofilm formation,[3]; highest concentration tested (100 μM),slightly affected
same,total lactic acid production per biofilm vs control (FIG. 3),[4],statistical significant difference
